# Where a SMILES comes first, the peptide text is derived from it. Where no end group is shown, it is not given here.
# Assays:
# [1] = test system: Mv-1-Lu mink lung epithelial cells; experiment: Inhibition of DNA synthesis (3H-thymidine incorporation) of Mv-1-Lu mink lung epithelial cells; type: cell-based; conditions: cytomodulin at the same concentration
# Experimental: The effect of TGF-β and cytomodulin were evaluated by determining the rate of [1H]thymidine incorporation into total acid-insoluble DNA and cell number. See generally, Sampath et al., J. Biol. Chem., 267, pp. 20352-20362 (1992). DNA synthesis rates were determined in triplicate cultures after 24 hour treatment with various concentrations (10^-9 M to 10^-6 M) of either TGF-β or cytomodulin (which was synthesized by the Merrifield method) by adding [methyl-3H]thymidine (2 uCi/ml, 80 Ci/mmol) for 6 hours before the termination of the culture. Incorporation was terminated by aspiration of the medium, and after washing three times with phosphate-buffered saline, the trichloroacetic acid (10%)-precipitated radioactive DNA was extracted with 1.0% (w/v) sodium dodecyl sulfate, 0.1 M NaOH and quantitated by liquid scintillation counting. For cell number determination, 1×10^5 cells were plated in flasks in MEM containing 10% FBS, and after 24 hours, the growth medium was replaced with serum-free medium containing various conceptions of TGF-β and cytomodulin. Triplicate cultures were harvested every 24 hours for the duration of 7 days, and the cell number was determined by counting cells released by trypsin digestion in a fixed volume hemacytometer.
# The numbers shown at the various concentration are the ratio of the inhibition rate of the peptide being tested over the inhibition rate of cytomodulin (SEQ ID NO: 1) at the same concentration.
# [2] = test system: contact dermatitis on both hands; set-up: species or system human; conditions: in vivo
# Text: A person had suffered from contact dermatitis on both hands for approximately 5 to 6 years. Signs of dermatitis, such as rash, itching, crustiness, thin skin (steroids) when flexed hand would start bleeding where lines, were apparent over approximately 100 cm^2 of the right and left hands, respectively (all of palm and fingers). The individual applied a lotion comprising cytomodulin (SEQ ID NO: 1) at a concentration of about approximately 0.01% once per day at night. The amount applied was about 0.25 ml per hand. After 3-4 days healing of the dermatitis was apparent. In approximately two weeks the dermatitis was completely healed.
# insect bite = test system: insect bite; set-up: species or system human; conditions: in vivo
# Text: A person reported that they were very allergic to insect bites, which usually made a large red welt, then turned purple and looked like a severe bruise, lasting for about a week.
# NRK-49 F fibroblasts = experiment: Growth and colony formation by NRK-49 F fibroblasts in soft agar; type: cell-based
# Experimental: The original assay for TGF-β, the ability to promote anchorage independent growth of normal fibroblasts is still one of the hallmarks of TGF-β activity. NRK49 F fibroblasts were grown at 37° C. in DEM supplemented with 10% fetal calf serum. […] To this, either 100 nM TGF-β (positive control) or 100 nM cytomodulin was added. NRK49 F fibroblasts (5×10^4 cells/ml) were mixed with 0.3% agar were plated on the bottom of 35 mm culture dishes. Colony formation was observed starting on day 3 of culture.
Compound,Inhib by new peptide/Inhib by cytomodulin (3H-thymidine incorporation) ([1]; 10 nM),Inhib by new peptide/Inhib by cytomodulin (3H-thymidine incorporation) ([1]; 100 nM),Inhib by new peptide/Inhib by cytomodulin (3H-thymidine incorporation) ([1]; 1 nM),Inhib by new peptide/Inhib by cytomodulin (3H-thymidine incorporation) ([1]; 1000 nM),negative effects of application of the lotion [2],adverse effects (insect bite),growth and colony formation of NRK-49 F cells in soft agar (in words) (NRK-49 F fibroblasts)
A-N-V-A-E-K (ANVAEK) [SEQ ID NO: 15],0.80,1.00,–,–,–,–,–
L-I-A-Q-A-K (LIAQAK) [SEQ ID NO: 12],1.10,0.80,0.90,1.56,–,–,–
"CC(C)[C@H](NC(=O)[C@H](CC(N)=O)NC(=O)[C@H](C)N)C(=O)N[C@@H](C)C(=O)N[C@@H](CCC(=O)O)C(=O)N[C@@H](CC(N)=O)C(=O)N[C@@H](C)C(=O)O [cytomodulin, Ala-Asn-Val-Ala-Glu-Asn-Ala] (H-ANVAENA-OH)",–,–,–,–,No negative effects,no adverse effects,–
L-I-A-N-A-K (LIANAK) [SEQ ID NO: 10],2.00,1.43,1.70,3.05,–,–,–
L-I-A-E-A-A (LIAEAA) [SEQ ID NO: 11],1.00,1.17,1.16,1.85,–,–,–
LIAEAK [L2],–,–,–,–,–,–,promoted the growth
LIAPEA [L1],–,–,–,–,–,–,promoted the growth
L-I-A-D-A-K (LIADAK) [SEQ ID NO: 9],0.87,1.14,0.45,1.25,–,–,–
L-I-A-G-E-G (LIAGEG) [SEQ ID NO: 14],0.85,1.41,0.66,1.88,–,–,–
L-I-A-K-G-K (LIAKGK) [SEQ ID NO: 16],0.65,0.67,–,–,–,–,–
L-I-A-G-G-E (LIAGGE) [SEQ ID NO: 13],1.33,1.45,1.10,1.90,–,–,–

# Source: patent publication US20060293228A1, “Therapeutic compositions and methods using transforming growth factor-beta mimics” (priority 2005, published 2006)
